The text below walks through data of patent publication US11225480B2, “Malic enzyme inhibitors” (SUN PHARMA ADVANCED RESEARCH COMPANY LTD, priority 2019, dated 2022).

Structures are written as SMILES. Some results are limits rather than exact numbers.

Holding throughout (type): biochemical
For test [1], the target named is human ME2 enzyme (Homo sapiens, UniProt P23368). The test is described as follows: ME2 inhibition assay (diaphorase/resazurin coupled fluorescence). The settings on record: 10 μM compound concentration; read-out: Malic Enzyme 2 % inhibition (10 μM). In a few lines: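 Human ME2 (10 μL of 60 nM) was preincubated 5 min at room temperature with compound (10 μM) in 50 mM Tris-HCl pH 7.5, 10 mM MnCl2, 7 mM L-malate, 50 μM resazurin and 0.025 mg/ml diaphorase. The reaction was started with 10 μL of 2 mM β-NAD+ and run 2 hours at room temperature. Resorufin fluorescence (ex 540/em 600 nm) was normalized to enzyme-only (100%) and no-enzyme (0%) controls as % activity.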
Sequence of human ME2 enzyme (P23368 19-584): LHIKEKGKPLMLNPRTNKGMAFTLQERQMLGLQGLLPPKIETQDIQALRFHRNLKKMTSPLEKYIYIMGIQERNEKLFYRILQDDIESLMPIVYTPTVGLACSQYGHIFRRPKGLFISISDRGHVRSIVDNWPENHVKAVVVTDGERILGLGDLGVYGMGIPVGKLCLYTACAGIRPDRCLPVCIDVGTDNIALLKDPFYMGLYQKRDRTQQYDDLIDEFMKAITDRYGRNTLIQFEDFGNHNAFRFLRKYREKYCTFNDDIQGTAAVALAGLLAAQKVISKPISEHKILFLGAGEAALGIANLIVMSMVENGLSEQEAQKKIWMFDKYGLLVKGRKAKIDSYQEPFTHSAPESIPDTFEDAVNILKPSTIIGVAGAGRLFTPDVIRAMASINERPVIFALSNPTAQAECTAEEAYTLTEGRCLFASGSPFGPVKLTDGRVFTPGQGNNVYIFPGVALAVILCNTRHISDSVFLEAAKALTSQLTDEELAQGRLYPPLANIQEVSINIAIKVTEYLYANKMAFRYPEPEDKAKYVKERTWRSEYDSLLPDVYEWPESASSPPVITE
For orientation: Alamar Blue is a resazurin reagent that responds to reducing activity.

Test [2] deals with T1, human ME1 enzyme (Homo sapiens, UniProt P48163).
T1 sequence (P48163 1-572): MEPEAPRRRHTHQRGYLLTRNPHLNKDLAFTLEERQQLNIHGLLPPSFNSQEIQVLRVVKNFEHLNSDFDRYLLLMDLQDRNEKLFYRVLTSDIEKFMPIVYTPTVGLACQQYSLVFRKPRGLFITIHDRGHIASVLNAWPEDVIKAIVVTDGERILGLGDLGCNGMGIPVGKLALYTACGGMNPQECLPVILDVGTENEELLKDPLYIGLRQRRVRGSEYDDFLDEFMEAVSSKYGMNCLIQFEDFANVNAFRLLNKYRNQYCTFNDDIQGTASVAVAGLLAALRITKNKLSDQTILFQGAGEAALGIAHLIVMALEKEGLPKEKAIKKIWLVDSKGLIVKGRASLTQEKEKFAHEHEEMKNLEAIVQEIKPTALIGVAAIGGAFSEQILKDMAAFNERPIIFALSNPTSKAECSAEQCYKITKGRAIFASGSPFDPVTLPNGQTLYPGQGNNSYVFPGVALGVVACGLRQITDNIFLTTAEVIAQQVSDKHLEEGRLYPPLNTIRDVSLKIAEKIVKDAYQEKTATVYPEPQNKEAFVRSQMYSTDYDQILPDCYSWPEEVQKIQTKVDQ
The test is described as follows: ME1 inhibition assay (diaphorase/resazurin coupled fluorescence). The settings on record: 10 μM compound concentration; read-out: Malic Enzyme 1 % inhibition (10 μM). In short, it runs like this:
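Compounds at 10 μM preincubated 15 min in 50 mM Tris-HCl pH 7.5, 10 mM MnCl2, 2 mM L-malate, 10 μM resazurin, 0.01 mg/ml diaphorase, then human ME1 added for 5 min; reaction started with NADP+ and run 2 h at room temperature. Resorufin fluorescence (ex 540/em 600 nm) normalized to enzyme-only (100%) and no-enzyme (0%) controls.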

In test [3] the target is T2, human ME3 enzyme (Homo sapiens, UniProt Q16798).
T2 sequence (Q16798 1-604): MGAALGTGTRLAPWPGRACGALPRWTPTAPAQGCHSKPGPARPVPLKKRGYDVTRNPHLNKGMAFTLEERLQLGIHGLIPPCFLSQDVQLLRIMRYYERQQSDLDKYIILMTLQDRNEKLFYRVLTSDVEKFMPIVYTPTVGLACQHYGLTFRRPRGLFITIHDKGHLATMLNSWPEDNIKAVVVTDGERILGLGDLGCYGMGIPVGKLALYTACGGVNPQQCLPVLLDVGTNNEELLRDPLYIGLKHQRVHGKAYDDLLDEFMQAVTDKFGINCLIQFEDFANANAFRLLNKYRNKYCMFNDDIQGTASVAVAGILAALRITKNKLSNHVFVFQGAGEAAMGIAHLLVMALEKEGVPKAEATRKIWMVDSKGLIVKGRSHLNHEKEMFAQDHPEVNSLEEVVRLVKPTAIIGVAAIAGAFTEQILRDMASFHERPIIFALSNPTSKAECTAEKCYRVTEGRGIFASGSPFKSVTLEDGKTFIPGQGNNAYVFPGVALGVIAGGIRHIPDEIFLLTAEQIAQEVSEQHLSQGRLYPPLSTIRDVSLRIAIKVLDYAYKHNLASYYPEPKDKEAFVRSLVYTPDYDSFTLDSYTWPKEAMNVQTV
The test is described as follows: ME3 inhibition assay (diaphorase/resazurin coupled fluorescence). To be noted: 10 μM compound concentration; read-out: Malic Enzyme 3 % inhibition (10 μM). In short, it runs like this: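 Coupled read-out: NADPH made by human ME3 (20 nM stock) drives diaphorase conversion of resazurin (50 μM) to resorufin; buffer 50 mM Tris-HCl pH 7.5, 10 mM MnCl2, 3 mM L-malate.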

By inhibition is commonly meant the percentage by which the read-out fell short of the control.

For the molecule `O=C(C1CCCc2ccccc21)N1CCN(c2ccc(O)cn2)CC1` (stereo not drawn) [I.132, [4-(5-Hydroxy-pyridin-2-yl)-piperazin-1-yl]-(1,2,3,4-tetrahydro-naphthalen-1-yl)-methanone], the inhibition at 10 µM was over 90% in test [1], 70 to 89% in test [2] and over 90% in test [3].

Take `O=C(C1CC(c2ccccc2)C1)N1CCN(c2ccc(O)cn2)CC1` (stereo not drawn) [I.134, [4-(5-Hydroxy-pyridin-2-yl)-piperazin-1-yl]-(3-phenyl-cyclobutyl)-methanone]: the inhibition at 10 µM in test [1], in test [2] and in test [3] was over 90% throughout.

With `O=C(CCn1ccc2ccccc21)N1CCN(c2ccc(O)cn2)CC1` [I.135, 1-[4-(5-Hydroxy-pyridin-2-yl)-piperazin-1-yl]-3-indol-1-yl-propan-1-one], the inhibition at 10 µM was over 90% in test [1], 70 to 89% in test [2] and over 90% in test [3].

`O=C(CCn1cnc2ccccc21)N1CCN(c2ccc(O)cn2)CC1` [I.136, 3-Benzo-imidazol-1-yl-1-[4-(5-hydroxy-pyridin-2-yl)-piperazin-1-yl]-propan-1-one]: the inhibition at 10 µM in test [1] is over 90%; in test [2], 70 to 89%; in test [3] it was over 90%.

For `O=C(CC1CC1)N1CCN(c2ccc(O)cn2)CC1` [I.137, 2-Cyclo-propyl-1-[4-(5-hydroxy-2-pyridyl)-piperazin-1-yl]ethanone], the inhibition at 10 µM in test [1], in test [2] and in test [3] was over 90% throughout.

With `N#Cc1ccc(CCC(=O)N2CCN(c3ccc(O)cn3)CC2)cc1` [I.138, 3-(4-Cyano-phenyl)-1-[4-(5-hydroxy-pyridin-2-yl)-piperazin-1-yl]-propan-1-one], the inhibition at 10 µM in test [1], in test [2] and in test [3] was over 90% in each case.

As for `O=C(CCc1ccc(C(F)(F)F)cc1)N1CCN(c2ccc(O)cn2)CC1` [I.139, 3-(4-Trifluoro-methylphenyl)-1-[4-(5-hydroxy-pyridin-2-yl)-piperazin-1-yl]-propan-1-one], the inhibition at 10 µM in test [1], in test [2] and in test [3] was over 90% in each case.

In the case of `O=C(CCC1CC1)N1CCN(c2ccc(O)cn2)CC1` [I.140, 3-Cyclo-propyl-1-[4-(5-hydroxy-2-pyridyl)-piperazin-1-yl]propan-1-one], the inhibition at 10 µM in test [1], in test [2] and in test [3] was over 90% throughout.

`O=C(O)c1ccccc1CCC(=O)N1CCN(c2ccc(O)cn2)CC1` [I.141, 2-{3-[4-(5-Hydroxy-pyridin-2-yl)-piperazin-1-yl]-3-oxo-propyl}-benzoic acid]: the inhibition at 10 µM was over 90% in test [1], 70 to 89% in test [2] and over 90% in test [3].

Consider `COC(=O)c1ccccc1CCC(=O)N1CCN(c2ccc(O)cn2)CC1` [I.142, 2-{3-[4-(5-Hydroxy-pyridin-2-yl)-piperazin-1-yl]-3-oxo-propyl}-benzoic acid methyl ester], for which the inhibition at 10 µM in test [1] is over 90%; in test [2], 70 to 89%; in test [3] it was over 90%.

`O=C(CSc1ccccc1Br)N1CCN(c2ccc(O)cn2)CC1` [I.143, 2-(2-Bromo-phenylsulfanyl)-1-[4-(5-hydroxy-pyridin-2-yl)-piperazin-1-yl]-ethanone]: the inhibition at 10 µM in test [1], in test [2] and in test [3] was over 90% throughout.

In the case of `O=C(C(O)Cc1ccccc1)N1CCN(c2ccc(O)cn2)CC1` (stereo not drawn) [I.144, 2-Hydroxy-1-[4-(5-hydroxy-pyridin-2-yl)-piperazin-1-yl]-3-phenyl-propan-1-one], the inhibition at 10 µM was over 90% in test [1], 50 to 69% in test [2] and over 90% in test [3].
